Where a SMILES comes first, the peptide text is derived from it. The star is where a group is joined. Cbz = O=C(OCc1ccccc1)*; CH2F = FC*
Columns and labels:
Format in all cases: cell-based
[1] = tested on: U2OS_Bim cells; test: Apoptosis inhibition assay (Bim-induced apoptosis, cell viability by ATP level); conditions: U2OS_Bim cells
How it was run: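 Apoptosis was triggered by doxycycline (0.1 μg/mL) induction of Bim, one hour after compound addition to U2OS_Bim cells. Survival was measured after 24 h from cellular ATP (CellTiter-Glo), relative to DMSO, with zVAD at 20 μM as rescue control. Data are duplicate means, some estimated from preliminary results.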

[2] = tested on: U2OS_Bim cells; test: Immunostaining of cytochrome c (mitochondrial cytochrome c release); conditions: immunofluorescence after induced Bim overexpression
Experimental: U2OS_Bim cells were plated in Lab-Tek eight-chambered slides (Thermo Scientific). 24 hrs later, cells were treated with experimental compounds for one hour. Cell were washed by PBS for 10 min and fixed with 2% PFA for 30 min at room temperature. Following three additional washes in PBS, cells were incubated in PBS containing 0.1% Triton X-100 for 10 min. Cytochrome c antibody (diluted in 5% BSA in PBST) was incubated with the cells at 4° C. overnight. Cells were then washed three times with PBST and incubated with secondary antibody at room temperature for 1 h. Following three additional washes in PBS, the slides were covered and sealed and then examined with a Zeiss LSM 510 confocal microscope.

[3] = tested on: U2OS_Bim cells; test: Irreversibility binding assay (cellular wash/no wash assay)
Source text: It has been reported that sulfone can serve as a good leaving group in SN2 substitution reactions when linked to electron withdrawing groups. Active compounds in our SAR study all contained a —CF3 substituted pyrimidine ring linked to the sulfone group. Replacement of CF3 at the R2 position with groups with less powerful electron-withdrawing properties totally abolished the apoptosis inhibition activity. […] To test the reactivity of representative TC09 compounds, we performed model reactions using different nucleophilic reagent (cysteine, lysine, and glutathione) with compounds 1, 6, and 27. […] To further explore the binding mode of the active compounds in a cellular context, we next performed a cellular wash/no wash assay for determining the reversibility of compound-target interactions. Following compound incubation, one subset of cells was washed several times to eliminate the free test compounds, and the other subset was not washed. Apoptosis was induced and the viability of cells was then measured and EC50 under wash conditions was compared with no wash conditions.[9]
U2OS_Bim cells were plated at a density of 3000 cells per well in 96-well plates. 24 hrs later, duplicate sets of cells were treated with experimental compounds for 3 hrs. One subset of these cells were treated with 0.1 μg/mL DOX to trigger apoptosis. The remaining subset of cells was washed free of the experimental compound using warmed medium, 3 times, before being treated with 0.1 μg/mL DOX. 24 hours after DOX addition, cell viability was determined by measuring the ATP levels using a CellTiter-Glo kit. Cell survival rate was calculated. zVAD (20 μM) was used as a positive control.

[4] = tested on: U2OS_Bim cells; test: TMRM staining (mitochondrial membrane potential); conditions: DOX induction of Bim
Experimental: U2OS_Bim cells were plated at a density of 3000 cells per well in 96-well optical plates. 24 hrs later, cells were treated with experimental compounds for one hour. The cells were then treated with 0.1 μg/mL DOX to trigger apoptosis. 4 hrs later, 50 nM TMRM was added to each well and incubated for 30 min. Cells were washed 3 times with warmed PBS buffer and examined with a Zeiss LSM 510 confocal microscope.

[5] = tested on: U2OS_Bim cells; test: Long-term cell survival under constant apoptotic insult (DOX)
Experimental: We therefore tested the long-term impact of TC09 compounds on cells experiencing constant apoptotic insult. […] Remarkably, in the presence of tested TC09 compounds, the cells continued to proliferate, similar to cells grown under normal conditions.
The U2OS_Bim cells were all killed when DOX was added, even in the presence of z-VAD-FMK.

[6] = estimated (*Est.) / preliminary results, numbering of Tables 4a/4b, read-out: EC50
[7] = no wash, 3 hrs compound incubation before DOX, read-out: EC50 (no wash)

Row | SMILES | EC50 [1, 6] | further results
1 | Cc1cc(-c2cc(F)c(=O)n(Cc3ccc4c(c3)OCO4)c2)nc(S(=O)(=O)CCC(OCc2ccccc2F)c2ccc3ccoc3c2)n1 (stereo not drawn) [Compound 394] | 1 to 1000 nM | 
2 | Cc1cc(-c2cc(F)c(=O)n(Cc3ccc4c(c3)OCO4)c2)nc(S(=O)(=O)CCC(OCc2ccccc2F)c2ccc3ncoc3c2)n1 (stereo not drawn) [Compound 395] | 1 to 1000 nM | 
3 | Cc1cc(-c2cc(F)c(=O)n(Cc3ccc4c(c3)OCO4)c2)nc(S(=O)(=O)CCC(OCc2ccccc2F)c2ccc3ncsc3c2)n1 (stereo not drawn) [Compound 396] | 1 to 1000 nM | 
4 | Cc1cc(-c2cc(F)c(=O)n(Cc3ccc4c(c3)OCO4)c2)nc(S(=O)(=O)CCC(OCc2ccccc2F)C2CCCOC2)n1 (stereo not drawn) [Compound 399] | 1 to 1000 nM | 
5 | Cc1cc(-c2cc(F)c(=O)n(Cc3ccc4c(c3)OCO4)c2)nc(S(=O)(=O)CCC(OCc2ccncc2)c2ccccc2)n1 (stereo not drawn) [Compound 402] | 1 to 1000 nM | 
6 | Cc1cc(-c2cc(F)c(=O)n(Cc3ccc4c(c3)OCO4)c2)nc(S(=O)(=O)CCC(OCc2cccn2C)c2ccccc2)n1 (stereo not drawn) [Compound 403] | 1 to 1000 nM | 
7 | Cc1cc(-c2cc(F)c(=O)n(Cc3ccc4c(c3)OCO4)c2)nc(S(=O)(=O)CCC(OCc2cncn2C)c2ccccc2)n1 (stereo not drawn) [Compound 404] | 1 to 1000 nM | 
8 | Cc1cc(-c2cc(F)c(=O)n(Cc3ccc4c(c3)OCO4)c2)nc(S(=O)(=O)CCC(OCc2cccs2)c2ccccc2)n1 (stereo not drawn) [Compound 405] | 1 to 1000 nM | 
9 | Cc1cc(-c2cc(F)c(=O)n(Cc3ccc4c(c3)OCO4)c2)nc(S(=O)(=O)CCC(OCc2cncs2)c2ccccc2)n1 (stereo not drawn) [Compound 406] | 1 to 1000 nM | 
10 | Cc1cc(-c2cc(F)c(=O)n(Cc3ccc4c(c3)OCO4)c2)nc(S(=O)(=O)CCC(OCc2cnco2)c2ccccc2)n1 (stereo not drawn) [Compound 408] | 1 to 1000 nM | 
11 | Cc1cc(-c2cc(F)c(=O)n(Cc3ccc4c(c3)OCO4)c2)nc(S(=O)(=O)CCC(OCC2CCNC2)c2ccccc2)n1 (stereo not drawn) [Compound 413] | 1 to 1000 nM | 
12 | Cc1cc(-c2cc(F)c(=O)n(Cc3ccc4c(c3)OCO4)c2)nc(S(=O)(=O)CCC(OCC2COC2)c2ccccc2)n1 (stereo not drawn) [Compound 417] | 1 to 1000 nM | 
13 | Cc1cc(-c2cc(F)c(=O)n(Cc3ccc4c(c3)OCO4)c2)nc(S(=O)(=O)CCC(OCC2CO2)c2ccccc2)n1 (stereo not drawn) [Compound 419] | 1 to 1000 nM | 
14 | Cc1cc(-c2cc(F)c(=O)n(Cc3ccc4c(c3)OCO4)c2)nc(S(=O)(=O)CCC(OCC2CN2C)c2ccccc2)n1 (stereo not drawn) [Compound 420] | 1 to 1000 nM | 
15 | Cc1cc(-c2cc(F)c(=O)n(Cc3ccc4c(c3)OCO4)c2)nc(S(=O)(=O)CCC(OCC(C)(C)C)c2ccccc2)n1 (stereo not drawn) [Compound 421] | 1 to 1000 nM | 
16 | Cc1ccc(O)c(NC(=O)CCCS(=O)(=O)c2nc(-c3cccs3)cc(C(F)(F)F)n2)c1 [Hit] |  | mitochondrial cytochrome c release [2]: could prevent cytochrome c release; EC50 ([3]; cells washed free of compound 3 times before DOX, read-out: EC50 (wash assay)): 3900 nM; EC50 [3, 7]: 4010 nM; EC50 ([1]; DOX-induced Bim overexpression, viability 24 h after DOX, read-out: EC50): 4010 nM; EC50 ([1]; means of duplicates, numbering of Tables 4a/4b, read-out: EC50): 1000 to 10000 nM; EC50 ([1]; read-out: EC50 in increasing cell survival rates following apoptosis induced by Bim overexpression): 4000 nM
17 | COC(=O)C[C@H](NC(=O)[C@H](C)NC(=O)[C@@H](NC(=O)OCc1ccccc1)C(C)C)C(=O)CF [zVAD] (Cbz-Val-Ala-Asp(OMe)-CH2F) |  | mitochondria membrane potential and TMRM enrichment after apoptosis induction [4]: cannot be achieved; cell colonies after 1 week culture with DOX (crystal violet) ([5]; 1 week): all killed; cell survival/proliferation over days after addition of DOX ([5]; constant apoptotic insult, up to third day): clearly delayed death, most of the cells had died by the third day; EC50 [3, 7]: 69200 nM

Continued, in another order:

Row | EC50 [1, 6] | SMILES | further results
18 | 1 to 1000 nM | Cc1cc(-c2cc(F)c(=O)n(Cc3ccc4c(c3)OCO4)c2)nc(S(=O)(=O)CCC(OCc2ccccc2F)c2ccc3ncn(C)c3c2)n1 (stereo not drawn) [Compound 393] | 
19 | 1 to 1000 nM | Cc1cc(-c2cc(F)c(=O)n(Cc3ccc4c(c3)OCO4)c2)nc(S(=O)(=O)CCC(OCc2ccccc2F)C2CCCCC2)n1 (stereo not drawn) [Compound 397] | 
20 | 1 to 1000 nM | Cc1cc(-c2cc(F)c(=O)n(Cc3ccc4c(c3)OCO4)c2)nc(S(=O)(=O)CCC(OCc2ccccc2F)C2CCCCN2C)n1 (stereo not drawn) [Compound 398] | 
21 | 1 to 1000 nM | Cc1cc(-c2cc(F)c(=O)n(Cc3ccc4c(c3)OCO4)c2)nc(S(=O)(=O)CCC(OCc2ccccc2F)C(C)(C)C)n1 (stereo not drawn) [Compound 400] | 
22 | 1 to 1000 nM | Cc1cc(-c2cc(F)c(=O)n(Cc3ccc4c(c3)OCO4)c2)nc(S(=O)(=O)CCC(OCc2ccncc2)c2ccccc2)n1 (stereo not drawn) [Compound 401] | 
23 | 1 to 1000 nM | Cc1cc(-c2cc(F)c(=O)n(Cc3ccc4c(c3)OCO4)c2)nc(S(=O)(=O)CCC(OCc2ccco2)c2ccccc2)n1 (stereo not drawn) [Compound 407] | 
24 | 1 to 1000 nM | Cc1cc(-c2cc(F)c(=O)n(Cc3ccc4c(c3)OCO4)c2)nc(S(=O)(=O)CCC(OCC2CCCCC2)c2ccccc2)n1 (stereo not drawn) [Compound 409] | 
25 | 1 to 1000 nM | Cc1cc(-c2cc(F)c(=O)n(Cc3ccc4c(c3)OCO4)c2)nc(S(=O)(=O)CCC(OCC2CCOCC2)c2ccccc2)n1 (stereo not drawn) [Compound 410] | 
26 | 1 to 1000 nM | Cc1cc(-c2cc(F)c(=O)n(Cc3ccc4c(c3)OCO4)c2)nc(S(=O)(=O)CCC(OCC2CCN(C)CC2)c2ccccc2)n1 (stereo not drawn) [Compound 411] | 
27 | 1 to 1000 nM | Cc1cc(-c2cc(F)c(=O)n(Cc3ccc4c(c3)OCO4)c2)nc(S(=O)(=O)CCC(OCC2CCCC2)c2ccccc2)n1 (stereo not drawn) [Compound 412] | 
28 | 1 to 1000 nM | Cc1cc(-c2cc(F)c(=O)n(Cc3ccc4c(c3)OCO4)c2)nc(S(=O)(=O)CCC(OCC2CCOC2)c2ccccc2)n1 (stereo not drawn) [Compound 414] | 
29 | 1 to 1000 nM | Cc1cc(-c2cc(F)c(=O)n(Cc3ccc4c(c3)OCO4)c2)nc(S(=O)(=O)CCC(OCC2CCC2)c2ccccc2)n1 (stereo not drawn) [Compound 415] | 
30 | 1 to 1000 nM | Cc1cc(-c2cc(F)c(=O)n(Cc3ccc4c(c3)OCO4)c2)nc(S(=O)(=O)CCC(OCC2CN(C)C2)c2ccccc2)n1 (stereo not drawn) [Compound 416] | 
31 | 1 to 1000 nM | Cc1cc(-c2cc(F)c(=O)n(Cc3ccc4c(c3)OCO4)c2)nc(S(=O)(=O)CCC(OCC2CC2)c2ccccc2)n1 (stereo not drawn) [Compound 418] | 

Source: patent US11725000B2, “Apoptosis inhibitors” (National Institute of Biological Sciences, Beijing, priority 2017, dated 2023)
